In patent publication US10322132B2, “Prevention or treatment of uratic or gouty diseases” (SHANTON PHARMA CO., LTD., priority 2015, dated 2019):

Assays:
serum uric acid = assay: Uric acid-lowering experiment in cynomolgus monkeys; assay type: in vivo; set-up: Reduction rate of serum uric acid: concentration or dose not given beside the values; conditions: for effect on serum uric acid levels in the test monkeys (in words): compared to the levels measured before administration; for Reduction rate of serum uric acid / Content of serum uric acid: intravenous
Experimental: The experiment was done by reference to Komoriya K, Osada Y, Hasegawa M, Horiuchi H, Kondo S, Couch R C, Griffin T B. Hypouricemic effect of allopurinol and the novel xanthine oxidase inhibitor TEI-6720 in chimpanzees. Eur J Pharmacol. 1993 Dec. 21; 250(3): 455-60.
Each compound was tested in three non-naïve cynomolgus monkeys (1 #, 2 # and 3 #), wherein the monkeys were administered with test samples by intravenous injection. Blood was collected from the vein before administration and 1 h, 3 h, 6 h and 24 h after administration. The blood was left still at room temperature. The serum was collected by centrifugation. The content of uric acid in serum was measured. Reduction rate of serum uric acid=(average uric acid content before administration−average uric acid content after administration)/average uric acid content before administration*100%.

[1] = system: MSU-induced gouty arthritis; assay: MSU-induced gouty arthritis, toe volume; assay type: in vivo, Male Wistar rats; conditions: for Inhibition of toe volume change (%) / Toe volume change: 9 h after MSU; for Inhibition of toe volume change (%): vs model group; for effect on increase of the toe volumes in the test rats (in words): compared with the model group
Experimental: The experiment was done by reference to Hsin-Pai Lee, Shi-Ying Huang, Yen-You Lin. Soft Coral-Derived Lemnalol Alleviates Monosodium Urate-Induced Gouty Arthritis in Rats by Inhibiting Leukocyte Infiltration and iNOS, COX-2 and c-Fos Protein Expression. […] 2013, 11, 99-113.
One gram of uric acid was weighed, introduced into 200 mL of boiling water and heated. Then, NaOH (2 mol/L) was added until pH reached 9. The solution became clear, and was cooled at room temperature and then left still overnight. MSU was obtained after filtration, which was dried at 60° C. for 24 h and then sterilized at a high temperature of 180° C.
The toe volumes of the rats were measured one day prior to the experiment. The rats were administered with the solvent by subcutaneous injection in the model group at a dose of 5 mL/kg, while the rats were administered with test samples by subcutaneous injection in administration groups at a dose of 5 mg/kg. Rats were anesthetized immediately after administration and were injected with 0.09 mL of MSU suspension into the joint cavity of the left ankle. The volume of the left toe was measured in rats 9 h after the injection of MSU into the ankle joint cavity.
The toe volumes of the rats were measured one day prior to the experiment. The rats were administered with the solvent by subcutaneous injection in the model group at a dose of 15 mL/kg, while the rats were administered with test samples by subcutaneous injection in administration groups at a dose of 15 mg/kg or 10 mg/kg. Rats were anesthetized immediately after administration and were injected with 0.09 mL of MSU suspension into the joint cavity of the left ankle. The volume of the left toe was measured in rats 9 h after the injection of MSU into the ankle joint cavity.
The toe volumes of rats were measured one day prior to the experiment. The rats were administered with the solvent by subcutaneous injection in the model group at a dose of 15 mL/kg, while the rats were administered with the test sample by subcutaneous injection in administration group at a dose of 15 mg/kg. Rats were anesthetized immediately after administration and were injected with 0.09 mL of MSU suspension into the joint cavity of the left ankle. The volume of the left toe in each rat was measured 9 h after the injection of MSU into the ankle joint cavity.

[2] = system: MSU-induced gouty arthritis; assay: Pain value in rats with gouty arthritis (electronic Von Frey pain threshold detector); assay type: in vivo, Male Wistar rats; conditions: for Pain value: Example 5, 15 mg/kg subcutaneous, left foot, Von Frey; for effect on pain values in the test rats (in words): Example 5, compared with the model group
Experimental: The rats with gouty arthritis were placed in a metabolic cage, and the palm center of the left foot of each rat was irritated with an electronic Von Frey pain threshold detector. The maximum stress value was recorded when each rat withdrew its foot, and the value was the pain value of that rat.

IFNγ = assay: ConA-induced IFNγ release; assay type: in vivo, Male C57BL/6 mice; conditions: for inhibition (%): IFN-γ in serum vs model group, 20 mg/kg subcutaneous; for effect on content of IFNγ in the serum of the test mice (in words): compared with the model group; for Content of IFN-γ: serum, 20 mg/kg subcutaneous 30 min before ConA 15 mg/kg tail vein, 3 h after ConA
Experimental: The experiment was conducted by reference to Dalya R. Soondl, Elisa Bjørgo, etc. PI3K p110δ regulates T cell cytokine production during primary and secondary immune responses in mice and humans. Blood. Author manuscript; available in PMC 2013 Mar. 11; and Gabriele Sass, Sonja Heinlein, etc. CYTOKINE EXPRESSION IN THREE MOUSE MODELS OF EXPERIMENTAL HEPATITIS. CYTOKINE, Vol. 19, No. 3 (7 Aug.), 2002: pp 115-120.
The C57BL/6 mice were raised in the SPF-grade animal room for 1 week, and were then randomly divided into the corresponding model group and the administration groups according to the body weight. The […] were administered with ConA by the tail vein injection at a dose of 15 mg/kg 30 min after the administration of the solvent or the test samples by subcutaneous injection at a dose of 20 mg/kg. After the mice were anesthetized with sodium pentobarbital (45 mg/kg by intraperitoneal injection) 3 h after administration of ConA, the blood was collected by cardiac puncture. The blood was placed in the centrifuge tube without anticoagulant and left still at room temperature. One hour later, the blood was centrifuged. The serum was extracted and stored at −80° C. The content of IFNγ (γ-interferon) in the serum was detected by a Mouse IFNγ Elisa

[3] = 3 h after administration vs before administration, animal 1#
[4] = 3 h after administration vs before administration, animal 2#
[5] = 3 h after administration vs before administration, mean
[6] = 3 h after administration, animal 1#
[7] = 3 h after administration, animal 2#
[8] = Example 5, 15 mg/kg or 10 mg/kg
[9] = Example 5, 15 mg/kg subcutaneous

Compound	effect on serum uric acid levels in the test monkeys (in words) (serum uric acid)	Reduction rate of serum uric acid (serum uric acid; [3])	Reduction rate of serum uric acid (serum uric acid; [4])	Reduction rate of serum uric acid (serum uric acid; [5])	Content of serum uric acid (serum uric acid; [6])	Content of serum uric acid (serum uric acid; [7])	Content of serum uric acid (serum uric acid; 3 h after administration, mean)	effect on increase of the toe volumes in the test rats (in words) [1, 8]	Toe volume change [1, 9]	Inhibition of toe volume change (%) [1, 9]	Pain value [2]	effect on pain values in the test rats (in words) [2]	inhibition (%) (IFNγ)	effect on content of IFNγ in the serum of the test mice (in words) (IFNγ)	Content of IFN-γ (IFNγ)	further results
CCCCCn1c(=O)[nH]c(=O)c2[nH]c(Cl)nc21 [Compound A, 8-chloro-3-pentyl-3,7-dihydro-1H-purine-2,6-dione]	significantly reduce	18.5%	38.0%	22.8%	61.9 µmol/L	57.0 µmol/L	59.6 µmol/L	significantly inhibit	0.264 mL	34.7%	47.51 g	significantly increase	38.3%	significantly reduce	2025 pg/mL	Reduction rate of serum uric acid (serum uric acid; 3 h after administration vs before administration, animal 3#): 5.98%; Content of serum uric acid (serum uric acid; 3 h after administration, animal 3#): 59.9 µmol/L; Reduction rate of serum uric acid (serum uric acid; 6 h after administration vs before administration, animal 1#): 10.9%; Reduction rate of serum uric acid (serum uric acid; 6 h after administration vs before administration, animal 2#): 48.2%; Reduction rate of serum uric acid (serum uric acid; 6 h after administration vs before administration, animal 3#): 20.9%; Reduction rate of serum uric acid (serum uric acid; 6 h after administration vs before administration, mean): 28.5%; Content of serum uric acid (serum uric acid; 6 h after administration, animal 1#): 67.6 µmol/L; Content of serum uric acid (serum uric acid; 6 h after administration, animal 2#): 47.6 µmol/L; Content of serum uric acid (serum uric acid; 6 h after administration, animal 3#): 50.4 µmol/L; Content of serum uric acid (serum uric acid; 6 h after administration, mean): 55.2 µmol/L; Change of toe volume ([1]; Example 4, 5 mg/kg subcutaneous, 9 h after MSU injection into left ankle joint cavity): 0.416 mL; Inhibition of toe volume change (%) ([1]; Example 4, 5 mg/kg subcutaneous): 17.5%; effect on increase of the toe volumes in the test rats (in words) ([1]; Example 4, 5 mg/kg): significantly inhibit
CCCCCn1c(=O)n(C)c(=O)c2[nH]c(Cl)nc21 [Compound D, 8-chloro-1-methyl-3-pentyl-3,7-dihydro-1H-purine-2,6-dione]	significantly reduce	14.3%	13.6%	13.9%	49.6 µmol/L	47.1 µmol/L	48.4 µmol/L	significantly inhibit	0.232 mL	42.6%	43.10 g	significantly increase	35.8%	significantly reduce	2108 pg/mL	
